In paper PMC5294771, “Antidiabetic effects of Brucea javanica seeds in type 2 diabetic rats” (BMC Complementary and Alternative Medicine, 2017):
Like-named read-outs stand apart in the source and are kept apart here. Marks after values point to notes of the source that are not given here.

Assays:
[1] = biological target: T1, glycogen phosphorylase α (GP-α) (Oryctolagus cuniculus, UniProt P00489); assay: GP-α inhibition assay; format: biochemical
T1 sequence (P00489 2-843 limits assumed): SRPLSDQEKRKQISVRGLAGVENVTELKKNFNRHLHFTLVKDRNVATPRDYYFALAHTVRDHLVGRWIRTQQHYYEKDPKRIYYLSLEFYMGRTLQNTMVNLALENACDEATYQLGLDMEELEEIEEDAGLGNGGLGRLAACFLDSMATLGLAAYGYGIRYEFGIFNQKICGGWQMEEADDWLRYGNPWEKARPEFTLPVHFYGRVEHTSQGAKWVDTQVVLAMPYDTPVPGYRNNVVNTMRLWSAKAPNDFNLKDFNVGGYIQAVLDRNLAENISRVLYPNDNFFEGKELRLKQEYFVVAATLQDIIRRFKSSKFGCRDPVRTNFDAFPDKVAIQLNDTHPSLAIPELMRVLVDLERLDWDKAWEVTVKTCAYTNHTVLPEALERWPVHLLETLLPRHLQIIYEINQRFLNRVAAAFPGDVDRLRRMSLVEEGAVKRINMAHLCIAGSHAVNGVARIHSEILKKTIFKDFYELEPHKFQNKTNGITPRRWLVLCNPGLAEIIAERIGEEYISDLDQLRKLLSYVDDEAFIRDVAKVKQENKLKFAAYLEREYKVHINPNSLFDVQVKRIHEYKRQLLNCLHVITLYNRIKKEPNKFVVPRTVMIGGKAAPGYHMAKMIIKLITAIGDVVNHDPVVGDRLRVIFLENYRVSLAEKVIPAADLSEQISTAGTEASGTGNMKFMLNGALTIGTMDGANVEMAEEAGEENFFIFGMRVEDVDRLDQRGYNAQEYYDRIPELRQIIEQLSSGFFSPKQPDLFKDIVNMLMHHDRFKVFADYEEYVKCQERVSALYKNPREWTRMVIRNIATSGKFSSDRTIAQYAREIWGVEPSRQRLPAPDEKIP

α-glucosidase = α-glucosidase (Saccharomyces cerevisiae, UniProt P53341); assay: α-glucosidase inhibition assay (pNPG); format: biochemical
Chain of α-glucosidase (P53341 whole entry): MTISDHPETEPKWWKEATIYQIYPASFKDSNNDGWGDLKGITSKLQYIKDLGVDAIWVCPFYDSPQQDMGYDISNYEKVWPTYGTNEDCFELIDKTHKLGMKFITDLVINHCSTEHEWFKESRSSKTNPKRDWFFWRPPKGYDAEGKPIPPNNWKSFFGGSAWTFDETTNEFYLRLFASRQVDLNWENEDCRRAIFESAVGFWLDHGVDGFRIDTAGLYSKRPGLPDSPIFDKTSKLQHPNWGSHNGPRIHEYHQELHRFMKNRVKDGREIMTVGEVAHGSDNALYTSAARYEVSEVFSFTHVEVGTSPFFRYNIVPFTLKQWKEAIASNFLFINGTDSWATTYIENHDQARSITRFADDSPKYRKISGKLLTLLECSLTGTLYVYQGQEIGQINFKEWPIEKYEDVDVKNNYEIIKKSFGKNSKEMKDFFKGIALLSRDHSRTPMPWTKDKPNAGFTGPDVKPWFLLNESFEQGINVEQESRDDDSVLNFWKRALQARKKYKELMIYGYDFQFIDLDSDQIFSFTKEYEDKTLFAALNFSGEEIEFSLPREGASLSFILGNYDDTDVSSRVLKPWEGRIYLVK
Experimental: The fractions from B. javanica seeds were evaluated as GP-α inhibitors and were further tested for their α-glucosidase inhibitory activity as described previously. Briefly, 50 μL of samples or standard were mixed with 100 μL of α-glucosidase (0.1 U/mL) in phosphate buffer (0.1 M, pH 6.9) and incubated at 37 °C for 10 min. The reactions were initiated by addition of p-Nitrophenyl α-D-Glucoside (p-NPG, 50 μL) in phosphate buffer (0.1 M, pH 6.9) and incubated again at 37 °C for 30 min. The reactions were terminated using NaCO3 (1 M, 50 μL). […] Phosphate buffer (50 μL) was used as control. Blank readings (without substrate) were subtracted from specific sample wells and the percentage of α-Glucosidase inhibition (αGI) was calculated as following formula: αGI (%) = [(Acontrol – Asample)/Acontrol] × 100 [22].
α-glucosidase inhibition activity of isolated compounds were determined according to the method described in section 2.3 and GP-α inhibition activity was measured according to our previously reported method.

nondiabetic mice = conditions: 1 mg/kg b.w., 0-8 h screening; cited from earlier work
[2] = system: STZ-induced diabetic rats; conditions: 1 mg/kg b.w., 0-8 h screening; cited from earlier work
[3] = system: NA-STZ induced type 2 diabetic (T2D) rats; assay: Liver and renal function markers in T2D rats; format: in vivo, Sprague Dawley (SD) rats; conditions: 10 mg/kg b.w., 4 weeks, serum
Experimental: (§1) At the end of study period, rats were fasted overnight, anesthetized, and the blood sample was collected by cardiac puncture. At the end, the rats were sacrificed by cervical dislocation. The blood sample was centrifuged 2000 x g for 15 minute at 4 °C, serum was collected and stored at −80 °C until analyses. The liver was carefully removed, washed in ice-cold phosphate buffered saline (PBS, pH 7.4) to remove the blood. A piece of liver sample was rinsed in liquid nitrogen, stored at −80 °C for glycogen assay.
(§2) The levels of serum total cholesterol (TC), triglycerides (TG), low density lipoprotein cholesterol (LDL-C), and high density lipoprotein cholesterol (HDL-C), total protein, alkaline phosphatase (ALP), alanine aminotransferase (ALT), aspartate aminotransferase (AST), urea, creatinine were analyzed using automatic biochemical analyzer (Beckman-700, Fullerton, CA, USA)

[4] = system: NA-STZ induced type 2 diabetic (T2D) rats; assay: Serum cytokine levels (ELISA) in T2D rats; format: in vivo, Sprague Dawley (SD) rats; conditions: 10 mg/kg b.w.
Experimental: as §1
The quantification of cytokine in the serum was assessed by enzyme-linked immunosorbent assay (ELISA) using commercial kits for rat TNF-α, rat IL-6, and rat IL-1β (eBioscience, San Diego, CA USA) according to the manufacturer’s instructions.

[5] = system: NA-STZ induced type 2 diabetic (T2D) rats; assay: Serum insulin levels and HOMA-IR in T2D rats; format: in vivo, Sprague Dawley (SD) rats; conditions: 10 mg/kg, 4 weeks, not significant
Experimental: as §1
The serum insulin levels were quantified by using rat insulin ELISA kit (Mercodia AB, Uppsala, Sweden) according to the manufacturer’s instructions. Insulin resistance (IR) was calculated according to the homeostasis model assessment by using the following equation [24] HOMA−IR=glucosemmol/L×insulinμU/mL/22.5

Body weights in T2D rats = format: in vivo, Sprague Dawley (SD) rats; conditions: 10 mg/kg/day b.w. oral
Experimental: (§3) After diabetes was confirmed, rats were divided into specific groups which were mentioned in the section of treatment protocol above. Fasting blood glucose (FBG) levels and body weight of rats were measured and it was considered as 0 day. The extracts and standard drug were administered orally on a daily base in single dose for 28 days. At the end of each week, animals were fasted overnight and body weights were recorded using electronic balance. Blood samples were obtained from the tail vein of the rats by Accu-Chek FastClix lancing device and blood glucose levels were analysed using glucose meter (Accu-check, Roche Diagnostics, USA).

[6] = system: NA-STZ induced type 2 diabetic (T2D) rats; assay: Serum MDA and GSH levels in T2D rats; format: in vivo, Sprague Dawley (SD) rats; conditions: 10 mg/kg
Experimental: as §1
The malondialdehyde (MDA), a byproduct of lipid peroxidation, and glutathione (GSH), a marker of antioxidant defense, were quantified by commercial kit (Cayman chemical company, Ann Arbor, MI, USA) according to the manufacturer’s instructions.

[7] = system: NA-STZ induced type 2 diabetic (T2D) rats; assay: Oral glucose tolerance test (OGTT) in T2D rats; format: in vivo, Sprague Dawley (SD) rats; conditions: 10 mg/kg
Experimental: On the 25th day of treatment, the OGTT was carried out according to the previously reported method. All animals were fasted overnight (16 h) before commencing the experiments. Group I (non-diabetic control) and Group II (diabetic control) weretreated with distilled water, Group III and Group IV were given EAF (25 and 50 mg/kg b.w), and Group V was given glibenclamide (10 mg/kg b.w.) using oral gavage, respectively. After 30 min, α-D-glucose (2 g/kg b.w.) was administered orally into all groups of rats. Blood samples were collected from the tail vein at 0 (immediately after glucose load), 30, 60, 90, and 120 min, and blood glucose levels were determined by glucose oxidase method using a commercial glucose meter (Roche, USA). […] AUCglucose=C1+C2/2×t2−t1
Where, C1 and C2 are concentrations of glucose at different time points; t1 and t2 are different tested time points.

[8] = system: NA-STZ induced type 2 diabetic (T2D) rats; assay: Fasting blood glucose levels in NA-STZ T2D rats, 28-day oral treatment; format: in vivo, Sprague Dawley (SD) rats; conditions: for Fasting blood glucose level: 10 mg/kg/day b.w. oral
Experimental: The experimental rats were fasted overnight (16 h) and diabetes was induced by single intraperitoneal (i.p) injection of STZ (60 mg/kg b.w.) freshly prepared in 0.1 M citrate buffer (pH 4.5) 15 min after i.p injection of NA (100 mg/kg b.w.) dissolved in normal saline. Diabetes was confirmed 3 weeks after NA-STZ induction by measuring tail vein blood glucose levels using glucose meter (Accu-check Performa, Rochi diagnostic, USA). The rats having blood glucose levels higher than 11 mmol/L were considered as diabetic and selected for study.
The experimental rats were divided into 5 groups (n = 6; 3 M/3 F) as following. Group I: non-diabetic control (NDC) and Group II: diabetic control (DC) consisted of rats were allowed to free access of water; Group III and IV were treated orally with EAF (25 and 50 mg/kg/day b.w.) diluted in distilled water, Group V was treated orally with Glibenclamide (10 mg/kg/day b.w.) and served as standard drug. All groups except group 1 are diabetic. The selected doses (25 and 50 mg/kg/day b.w) were based on prior acute oral toxicity study.
as §3

[9] = system: NA-STZ induced type 2 diabetic (T2D) rats; assay: Liver glycogen contents in T2D rats; format: in vivo, Sprague Dawley (SD) rats; conditions: 10 mg/kg b.w.
Experimental: as §1
The glycogen contents in the liver were measured using a glycogen assay kit (Ann Arbor, MI, USA) according to the manufacturer’s instructions.

[10] = system: NA-STZ induced type 2 diabetic (T2D) rats; assay: Serum lipid profiles in T2D rats; format: in vivo, Sprague Dawley (SD) rats; conditions: 10 mg/kg, 4 weeks
Experimental: as §1, §2

[11] = isolated compounds, read-out: Glycogen phosphorylase α IC50

COc1cc(C(=O)O)ccc1O [Compound 1, vanillic acid]
GP-α inhibition [1]: no inhibition
inhibition at 12000 µM ([1]; at 12 mM): 22.9%
α-glucosidase inhibition (α-glucosidase): no inhibition
α-glucosidase inhibition (α-glucosidase; concentrations tested up to 6 mM): did not inhibit

CC1=CC(=O)[C@@H](O)[C@]2(C)[C@H]3[C@@H](O)[C@H](O)[C@]4(C)OC[C@@]35[C@@H](C[C@@H]12)OC(=O)[C@H](O)[C@]54O [Compound 2, bruceine D]
GP-α inhibition [1]: no inhibition
α-glucosidase inhibition (α-glucosidase): no inhibition
inhibitory activity against α-glucosidase (α-glucosidase; at 2.5 mM): 14.74%
blood glucose effect (nondiabetic mice): blood glucose lowering effect
blood glucose effect [2]: blood glucose lowering effect

CC1=C[C@H](O)[C@@H](O)[C@]2(C)[C@H]3[C@@H](O)[C@H](O)[C@@]4(C)OC[C@@]35[C@@H](C[C@@H]12)OC(=O)[C@H](O)[C@]54O [Compound 3, bruceine E]
GP-α inhibition [1]: no inhibition
inhibition at 5000 µM ([1]; at 5 mM, read-out: inhibitory activity against GP-α): 32.7%
α-glucosidase inhibition (α-glucosidase): no inhibition
inhibition at 2500 µM (α-glucosidase; at 2.5 mM, read-out: inhibitory activity against α-glucosidase): 16.1%
blood glucose effect (nondiabetic mice): blood glucose lowering effect
blood glucose effect [2]: blood glucose lowering effect

O=C(O)c1ccc(O)cc1 [Compound 4, Para-hydroxybenzoic acid]
IC50 [1, 11]: 357.88 ± 0.07 µM

O=c1cc(-c2ccc(O)c(O)c2)oc2cc(O)cc(O)c12 [Compound 5, luteolin]
IC50 [1, 11]: 45.08 ± 0.04 µM
GP-α inhibitory potency relative to caffeine ([1]; vs caffeine): 10 fold
α-glucosidase inhibitory potency relative to acarbose (α-glucosidase; vs acarbose): 5.5 fold

O=C(O)c1ccc(O)c(O)c1 [Compound 6, protocatechuic acid]
IC50 [1, 11]: 297.37 ± 0.13 µM

O=C(O)c1cc(O)c(O)c(O)c1 [Compound 7, gallic acid]
IC50 [1]: 214.38 ± 0.12 µM

COc1ccc(Cl)cc1C(=O)NCCc1ccc(S(=O)(=O)NC(=O)NC2CCCCC2)cc1 [Glibenclamide, glibenclamide]
ALP [3]: 146.67 ± 10.50 U/L
ALT [3]: 58.17 ± 4.52 U/L
AST [3]: 138.83 ± 8.33 U/L
Creatinine [3]: 29.00 ± 0.93 µmol/L
Urea [3]: 10.37 ± 1.80 mmol/L
IL-1β [4]: 570.67 ± 31.71^b pg/ml
IL-6 [4]: 123.06 ± 10.18^b pg/ml
TNF-α [4]: 70.10 ± 4.00^b pg/ml
increase of serum insulin compared to diabetic control group [5]: 16.5%
Body Weight (Body weights in T2D rats; 0 Day): 211.00 ± 6.19 g
Body Weight (Body weights in T2D rats; Day 7): 203.50 ± 8.90 g
Body Weight (Body weights in T2D rats; Day 14): 205.83 ± 7.31 g
Body Weight (Body weights in T2D rats; Day 21): 206.00 ± 6.64 g
Body Weight (Body weights in T2D rats; Day 28): 209.33 ± 7.91 g
reduction of serum MDA level compared to DC group [6]: about 36.45%
increase of serum GSH level compared to DC group ([6]; not significant): about 18.94%
decrease of AUC for glucose 0 to 120 min compared to DC group [7]: 57.42%
OGTT blood glucose reduction at 120 min compared to the values at 30 min ([7]; day 25, glucose 2 g/kg): 29.97%
reduction of FBG levels compared to initial day ([8]; 10 mg/kg b.w. once a day for 28 days): 45.44%
Fasting blood glucose level ([8]; 0 Day): 16.90 ± 1.63 mmol/L
Fasting blood glucose level ([8]; Day 7): 17.63 ± 2.13 mmol/L
Fasting blood glucose level ([8]; Day 14): 12.97 ± 0.72 mmol/L
Fasting blood glucose level ([8]; Day 21): 11.83 ± 1.27 mmol/L
Fasting blood glucose level ([8]; Day 28): 9.22 ± 0.65^a mmol/L
LG (liver glycogen) [9]: 11.55 ± 1.82 mg/g tissue
Serum HDL [10]: 1.31 ± 0.08^a mmol/L
Serum LDL [10]: 0.59 ± 0.04^a mmol/L
Serum TC [10]: 1.12 ± 0.05^c mmol/L
Serum TG [10]: 0.52 ± 0.09^b mmol/L
